# Data: ChEMBL document CHEMBL2057116, “A novel tetrahydrobenzoangelicin with dark and photo biological activity” (Bioorg Med Chem, 2012)
# Activity calls are given as the source filed them. No cut-off for these calls is given here.
# How the values were obtained:
# [1] = test system: HeLa; test: Antiproliferative activity against human HeLa cells incubated for 1 hr with inhibitor followed by UV irradiation measured after 24 hrs by trypan blue dye assay; format: functional, cell-based; conditions: light or radiation study
# [2] = test system: HeLa; test: Antiproliferative activity against human HeLa cells after 24 hrs by trypan blue dye assay; format: functional, cell-based
# [3] = test system: A-431; test: Antiproliferative activity against human A431 cells incubated for 1 hr with inhibitor followed by UV irradiation measured after 24 hrs by trypan blue dye assay; format: functional, cell-based; conditions: A-431, light or radiation study
# [4] = test system: A-431; test: Antiproliferative activity against human A431 cells after 24 hrs by trypan blue dye assay; format: functional, cell-based; conditions: A-431, 24 h
# [5] = test system: HeLa; test: Ratio of IC50 for 8-MOP to compound IC50 for human HeLa cells incubated for 1 hr with inhibitor followed by UV irradiation measured after 24 hrs by trypan blue dye assay; format: functional
# [6] = test system: A-431; test: Ratio of IC50 for 8-MOP to compound IC50 for human A431 cells incubated for 1 hr with inhibitor followed by UV irradiation measured after 24 hrs by trypan blue dye assay; format: functional
# [7] = test system: Nucleic Acid; test: Binding affinity to salmon testes DNA assessed as change in linear dichroism at compound to DNA ratio of 0.02 to 0.08 by circular dichroism analysis; format: nucleic-acid assay; conditions: Salmonidae
# [8] = molecular target: DNA topoisomerase 2-alpha (Homo sapiens) (UniProt P11388); test: Inhibition of human recombinant topoisomerase 2alpha-mediated pBR322 DNA relaxation after 60 mins by agarose gel electrophoretic analysis
# [9] = molecular target: DNA topoisomerase 2-alpha (Homo sapiens) (UniProt P11388); test: Inhibition of human recombinant topoisomerase 2alpha-mediated pBR322 DNA relaxation at 5 uM after 60 mins by agarose gel electrophoretic analysis
# [10] = molecular target: DNA topoisomerase 2-alpha (Homo sapiens) (UniProt P11388); test: Inhibition of human recombinant topoisomerase 2alpha-mediated pBR322 DNA relaxation at 10 uM after 60 mins by agarose gel electrophoretic analysis
# [11] = molecular target: DNA topoisomerase 2-alpha (Homo sapiens) (UniProt P11388); test: Inhibition of human recombinant topoisomerase 2alpha-mediated pBR322 DNA complex formation at 10 uM after 60 mins by agarose gel electrophoresis
# [12] = test system: Nucleic Acid; test: Photoaddition to salmon testes DNA assessed as thymine-photoadduct formation by UV-Vis spectrophotometric analysis; format: nucleic-acid assay; conditions: Salmonidae
# [13] = molecular target: DNA topoisomerase 2-alpha (Homo sapiens) (UniProt P11388); test: Inhibition of human recombinant topoisomerase 2alpha-mediated pBR322 DNA relaxation at 8 uM after 60 mins by agarose gel electrophoretic analysis
# [14] = molecular target: DNA topoisomerase 2-alpha (Homo sapiens) (UniProt P11388); test: Inhibition of human recombinant topoisomerase 2alpha-mediated pBR322 DNA complex formation at 8 uM after 60 mins by agarose gel electrophoresis
# Chain of DNA topoisomerase 2-alpha (Homo sapiens) (P11388 whole entry): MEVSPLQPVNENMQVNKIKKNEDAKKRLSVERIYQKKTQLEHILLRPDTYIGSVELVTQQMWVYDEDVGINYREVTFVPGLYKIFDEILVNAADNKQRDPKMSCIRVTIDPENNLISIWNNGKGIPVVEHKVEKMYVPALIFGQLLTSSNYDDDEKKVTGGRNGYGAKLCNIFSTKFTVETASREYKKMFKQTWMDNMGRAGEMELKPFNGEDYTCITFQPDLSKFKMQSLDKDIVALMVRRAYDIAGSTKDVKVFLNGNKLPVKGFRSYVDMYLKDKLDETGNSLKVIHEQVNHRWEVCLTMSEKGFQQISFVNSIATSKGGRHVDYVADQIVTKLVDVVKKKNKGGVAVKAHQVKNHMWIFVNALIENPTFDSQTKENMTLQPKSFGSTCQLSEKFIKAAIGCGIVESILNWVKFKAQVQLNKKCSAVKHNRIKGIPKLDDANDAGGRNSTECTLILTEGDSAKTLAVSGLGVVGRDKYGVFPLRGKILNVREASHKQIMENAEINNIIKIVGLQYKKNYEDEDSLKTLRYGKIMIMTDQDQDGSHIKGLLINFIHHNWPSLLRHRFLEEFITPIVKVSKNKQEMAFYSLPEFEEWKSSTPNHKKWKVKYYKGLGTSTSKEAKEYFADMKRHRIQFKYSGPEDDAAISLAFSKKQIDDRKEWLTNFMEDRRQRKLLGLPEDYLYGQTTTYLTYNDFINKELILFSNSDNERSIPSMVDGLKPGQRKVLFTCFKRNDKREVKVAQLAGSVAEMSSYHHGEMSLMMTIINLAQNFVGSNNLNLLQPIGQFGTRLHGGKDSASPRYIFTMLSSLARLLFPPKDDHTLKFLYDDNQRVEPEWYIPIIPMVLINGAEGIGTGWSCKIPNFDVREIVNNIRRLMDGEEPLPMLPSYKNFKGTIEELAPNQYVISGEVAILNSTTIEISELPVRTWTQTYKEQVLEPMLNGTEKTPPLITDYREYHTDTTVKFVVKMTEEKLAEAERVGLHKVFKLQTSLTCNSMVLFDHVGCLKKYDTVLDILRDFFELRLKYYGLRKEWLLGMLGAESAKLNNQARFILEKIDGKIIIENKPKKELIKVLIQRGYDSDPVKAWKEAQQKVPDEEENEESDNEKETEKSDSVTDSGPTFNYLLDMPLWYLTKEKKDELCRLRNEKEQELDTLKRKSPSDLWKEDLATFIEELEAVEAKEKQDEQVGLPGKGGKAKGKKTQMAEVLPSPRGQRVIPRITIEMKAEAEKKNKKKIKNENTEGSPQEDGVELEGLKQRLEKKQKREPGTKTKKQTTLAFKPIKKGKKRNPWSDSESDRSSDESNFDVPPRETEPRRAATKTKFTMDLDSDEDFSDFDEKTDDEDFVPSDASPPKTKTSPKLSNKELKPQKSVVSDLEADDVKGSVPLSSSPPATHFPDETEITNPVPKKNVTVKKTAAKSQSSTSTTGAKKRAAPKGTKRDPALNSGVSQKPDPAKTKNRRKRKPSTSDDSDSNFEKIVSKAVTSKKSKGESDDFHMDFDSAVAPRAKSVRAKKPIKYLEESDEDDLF
IC50 [1] [µM],IC50 [2] [µM],IC50 [3] [µM],IC50 [4] [µM],Activity [7],inhibition [8],inhibition [9],inhibition [10],inhibition [11],Activity [12],inhibition [13],inhibition [14],Compound,Ratio IC50 [5],Ratio IC50 [6]
1.4,> 20,4.2,> 20,,,,,,,,,Cc1cc(=O)oc2c1c(OCCCN(C)C)cc1oc3ccccc3c12,5.9,5.9
0.4,7.2,2,6.7,Active,Dose-dependent effect,Active,Active,inactive,Active,,,Cc1cc(=O)oc2c1c(OCCCN(C)C)cc1oc3c(c12)CCCC3,5.9,5.9
,> 30,25,> 30,,,,,,,,,COc1c2occc2cc2ccc(=O)oc12 [METHOXSALEN],,
,,,,,,,,,,Active,Active,COc1cc(NS(C)(=O)=O)ccc1Nc1c2ccccc2nc2ccccc12,,
